The numbers were not newly measured in patent publication US5856175A, “Device for detecting microorganisms” (priority 1996, dated 1999), which cites them from elsewhere.

The conditions of one series: acid range, Table 2; cited from earlier work.
On to `Cc1cc(C2(c3ccc(O)c(C)c3)OS(=O)(=O)c3ccccc32)ccc1O` [Cresol red], for which the “pH range (acid range)” value is 0.2-1.8 pH. Regarding `Cc1cc(O)ccc1C1(c2ccc(O)cc2C)OS(=O)(=O)c2ccccc21` [m-Cresol purple], the “pH range (acid range)” value was 1.0-2.6 pH. In the case of `Cc1cc(O)c(C(C)C)cc1C1(c2cc(C(C)C)c(O)cc2C)OS(=O)(=O)c2ccccc21` [Thymol blue], the “pH range (acid range)” value is recorded as 1.2-2.8 pH.

Staying with this series, now noted: acid-base indicator, Table 2; cited from earlier work.
On to Azolitmin [Azolitmin (litmus)], for which the pH range is reported as 5.0-8.0 pH.

In the case of `CN(C)c1ccc(N=Nc2ccccc2)cc1` [Methyl Yellow], the pH range is listed as 2.9-4.0 pH. Consider `O=C1OC(c2ccc(O)cc2)(c2ccc(O)cc2)c2ccccc21` [Phenolphthalein], for which the pH range is 8.3-10.0 pH. Take `O=S(=O)(O)c1ccc(N=Nc2ccc(O)cc2O)cc1` [Tropaeolin O]: the pH range is 11.1-12.7 pH. For the compound `O=S1(=O)OC(c2cc(Br)c(O)c(Br)c2)(c2cc(Br)c(O)c(Br)c2)c2ccccc21` [Bromophenol blue], the pH range is 3.0-4.6 pH. As to `Cc1cc(C2(c3cc(C)c(O)c(Br)c3)OS(=O)(=O)c3ccccc32)cc(Br)c1O` [Bromocresol purple], the pH range is recorded as 5.2-6.8 pH. For the compound `O=S1(=O)OC(c2ccc(O)c(Cl)c2)(c2ccc(O)c(Cl)c2)c2ccccc21` [Chlorophenol red], the pH range is listed as 4.8-6.4 pH. Regarding `O=S(=O)(O)c1ccc(N=Nc2ccc(Nc3ccccc3)cc2)cc1` [Tropaeolin OO], the pH range was 1.3-3.0 pH. Alizarin yellow: the pH range is reported as 10.1-12.0 pH. Take `Cc1cc(O)c(C(C)C)cc1C1(c2cc(C(C)C)c(O)cc2C)OC(=O)c2ccccc21` [Thymolphthalein]: the pH range is recorded as 9.3-10.5 pH. Consider `Cc1cc2nc3ccc(N(C)C)cc3nc2cc1N` [Neutral red], for which the pH range is reported as 6.8-8.0 pH. As for `Nc1c(/N=N/c2ccc(-c3ccc(/N=N/c4cc(S(=O)(=O)O)c5ccccc5c4N)cc3)cc2)cc(S(=O)(=O)O)c2ccccc12` [Congo red], the pH range is 3.0-5.0 pH.

For `CN(C)c1ccc(/N=N/c2ccccc2C(=O)O)cc1` [Methyl red], the pH range is reported as 4.2-6.3 pH. For `O=S1(=O)OC(c2cc(Br)c(O)c(Br)c2)(c2cc(Br)c(O)c(Br)c2)c2c(Br)c(Br)c(Br)c(Br)c21` [Tetrabromophenol blue], the pH range was 3.0-4.6 pH. `Cc1c(C2(c3cc(Br)c(O)c(Br)c3C)OS(=O)(=O)c3ccccc32)cc(Br)c(O)c1Br` [Bromocresol green (blue), Bromocresol green]: the pH range is reported as 3.6-5.2 pH.

For the compound `CN(C)c1ccc(N=Nc2ccc(S(=O)(=O)O)cc2)cc1` [Methyl orange], the pH range is recorded as 3.1-4.4 pH.

For `Cc1c(C2(c3cc(C(C)C)c(O)c(Br)c3C)OS(=O)(=O)c3ccccc32)cc(C(C)C)c(O)c1Br` [Bromothymol blue], the pH range is 6.0-7.6 pH. Take `O=S1(=O)OC(c2ccc(O)cc2)(c2ccc(O)cc2)c2ccccc21` [Phenol red]: the pH range was 6.8-8.4 pH.

Still in this series, the particulars now being: basic range, Table 2; cited from earlier work.
As for `Cc1cc(C2(c3ccc(O)c(C)c3)OS(=O)(=O)c3ccccc32)ccc1O` [Cresol red], the “pH range (basic range)” value is 7.2-8.8 pH. Turning to `Cc1cc(O)ccc1C1(c2ccc(O)cc2C)OS(=O)(=O)c2ccccc21` [m-Cresol purple], the “pH range (basic range)” value is 7.6-9.2 pH. Take `Cc1cc(O)c(C(C)C)cc1C1(c2cc(C(C)C)c(O)cc2C)OS(=O)(=O)c2ccccc21` [Thymol blue]: the “pH range (basic range)” value is recorded as 8.0-9.6 pH.
